Values of other authors, collected in patent publication US20150093449A1, “Method of Using Silicon Substituted Phosphates to Improve Healing of Bone and Soft Tissue” (priority 2009, published 2015).

System: staph epidermis

silicon
glycoprotein slime formation: inhibits
